The values below are quoted from earlier work in US20260007782A1, “PREPARATION METHOD FOR LIQUID COMPOSITION COMPRISING COMPOUND I AND USE IN MYOCARDIAL PERFUSION PET IMAGING” (SINOTAU PHARMACEUTICAL GROUP, priority 2022, published 2026).

The conditions of the series: animals.

As for `CC(C)(C)n1ncc(OCc2cccc(Cn3cc(COCCOCC[18F])nn3)c2)c(Cl)c1=O` [Compound I, 2-tert-butyl-4-chloro-5-((3-((4-((2-(2-fluoro[^18F]ethoxy)ethoxy)methyl)-1H-1,2,3-triazol-1-yl)methyl)benzyl)oxy)pyridazin-3(2H)-one], under “15 minutes post-injection”, the cardiac uptake result is listed as “high” and the liver uptake entry is “low”. Besides, the heart-to-liver ratio entry (maintained after 60 minutes) is “favorable”.
